Results reported in ChEMBL document CHEMBL3526005, “Pharmacokinetic and pharmacodynamic properties of cholinesterase inhibitors donepezil, tacrine, and galantamine in aged and young Lister hooded rats” (Drug Metab Dispos, 2011).
The source made the active and inactive calls. No cut-off for these calls is given here.

Columns and labels:
Rattus norvegicus [1] = assay: Inhibition of cholinesterase activity in 30 months-old Lister Hooded rat plasma assessed as percent enhancement of inhibition at 3 mg/kg, po after 1 hr treatment; type: organism-based; parameters: dose 3 mg/kg; scale not given: the % may be the effect or the level left
[2] = Ratio of brain to blood in 7 months-old Lister Hooded rat blood at 3 mg/kg, po after 1 hr treatment
[3] = Volume of distribution in 7 months-old Lister Hooded rat at 1 mg/kg, iv infusion for 1 hr; conditions: in vivo
[4] = Half life in 7 months-old Lister Hooded rat at 1 mg/kg, iv infusion for 1 hr; conditions: in vivo
[5] = Mean residence time in 7 months-old Lister Hooded rat at 1 mg/kg, iv infusion for 1 hr; conditions: in vivo
[6] = Volume of distribution in 30 months-old Lister Hooded rat at 1 mg/kg, iv infusion for 1 hr; conditions: in vivo
[7] = Half life in 30 months-old Lister Hooded rat at 1 mg/kg, iv infusion for 1 hr; conditions: in vivo
[8] = Mean residence time in 30 months-old Lister Hooded rat at 1 mg/kg, iv infusion for 1 hr; conditions: in vivo
Rattus norvegicus [9] = assay: Inhibition of cholinesterase activity in 7 months-old Lister Hooded rat plasma at 3 mg/kg, po after 1 hr treatment; type: organism-based; parameters: dose 3 mg/kg
[10] = Tmax in human at 2 mg, po single dose; conditions: in vivo
[11] = Half life in human at 2 mg, po single dose; conditions: in vivo
Homo sapiens = assay: Volume of distribution in human at 2 mg, po single dose; conditions: in vivo
[12] = Clearance in human at 2 mg, po single dose; conditions: in vivo
[13] = Oral bioavailability in human at 2 mg single dose; conditions: in vivo
[14] = Drug excretion in human urine assessed as unchanged drug level at 2 mg, po single dose; type: ADME, organism-based; conditions: read-out: Drug excretion
Rattus norvegicus [15] = organism: Rattus norvegicus; conditions: in vivo, iv, 1 mg/kg, 1 h
Rattus norvegicus [16] = organism: Rattus norvegicus; conditions: in vivo, po, 3 mg/kg
Rattus norvegicus [17] = organism: Rattus norvegicus; conditions: in vivo, po, 3 mg/kg; remark: listed apart in the source
Rattus norvegicus [18] = organism: Rattus norvegicus; conditions: in vivo, iv, 1 mg/kg, 1 h; remark: listed apart in the source
Rattus norvegicus [19] = organism: Rattus norvegicus; conditions: in vivo, iv, 1 mg/kg, 1 h; remark: listed apart in the source
Rattus norvegicus [20] = organism: Rattus norvegicus; conditions: in vivo, po, 3 mg/kg; remark: listed apart in the source
Rattus norvegicus [21] = organism: Rattus norvegicus; conditions: in vivo, po, 3 mg/kg; remark: listed apart in the source
in vivo [22] = conditions: Lister Hooded, rat, brain, po, 3 mg/kg
Description: Ratio of brain to blood in 30 months-old Lister Hooded rat blood at 3 mg/kg, po after 1 hr treatment

in vivo [23] = conditions: Lister Hooded, rat, po, 3 mg/kg
in vivo [24] = conditions: Lister Hooded, rat, po, 3 mg/kg; remark: listed apart in the source
in vivo [25] = conditions: Lister Hooded, rat, po, 3 mg/kg; remark: listed apart in the source
in vivo [26] = conditions: Lister Hooded, rat, iv, 1 mg/kg
in vivo [27] = conditions: Lister Hooded, rat, iv, 1 mg/kg; remark: listed apart in the source
in vivo [28] = conditions: Lister Hooded, rat, po, 3 mg/kg; remark: listed apart in the source
in vivo [29] = conditions: Lister Hooded, rat, po, 3 mg/kg; remark: listed apart in the source
in vivo [30] = conditions: Lister Hooded, rat, po, 3 mg/kg; remark: listed apart in the source
in vivo [31] = conditions: Lister Hooded, rat, iv, 1 mg/kg; remark: listed apart in the source
in vivo [32] = conditions: Lister Hooded, rat, iv, 1 mg/kg; remark: listed apart in the source
[33] = Drug uptake in 7 months-old Lister Hooded rat blood at 3 mg/kg, po after 1 hr treatment; conditions: in vivo
[34] = Drug uptake in 7 months-old Lister Hooded rat assessed as corrected brain concentration at 3 mg/kg, po after 1 hr treatment; conditions: in vivo
[35] = Drug uptake in 30 months-old Lister Hooded rat blood at 3 mg/kg, po after 1 hr treatment; conditions: in vivo
[36] = Drug uptake in 30 months-old Lister Hooded rat assessed as corrected brain concentration at 3 mg/kg, po after 1 hr treatment; conditions: in vivo
Rattus norvegicus [37] = organism: Rattus norvegicus; conditions: in vivo, iv, 1 mg/kg, 1 h; remark: listed apart in the source
[38] = Plasma protein binding in human at 2 mg, po single dose; conditions: in vivo
[39] = Drug excretion in human urine at 2 mg, po single dose; conditions: in vivo
[40] = Drug excretion in human feces at 2 mg, po single dose; conditions: in vivo
[41] = biological target: Butyrylcholinesterase (Rattus norvegicus) (UniProt Q9JKC1); conditions: Lister Hooded, 3 mg/kg
Description: Inhibition of butyrylcholinesterase activity in 7 months-old Lister Hooded rat brain at 3 mg/kg, po after 1 hr treatment

[42] = biological target: Butyrylcholinesterase (Rattus norvegicus) (UniProt Q9JKC1); conditions: Lister Hooded, Plasma, 3 mg/kg
Description: Inhibition of butyrylcholinesterase activity in 7 months-old Lister Hooded rat plasma at 3 mg/kg, po after 1 hr treatment

Chain of Butyrylcholinesterase (Rattus norvegicus) (Q9JKC1 as listed by the source): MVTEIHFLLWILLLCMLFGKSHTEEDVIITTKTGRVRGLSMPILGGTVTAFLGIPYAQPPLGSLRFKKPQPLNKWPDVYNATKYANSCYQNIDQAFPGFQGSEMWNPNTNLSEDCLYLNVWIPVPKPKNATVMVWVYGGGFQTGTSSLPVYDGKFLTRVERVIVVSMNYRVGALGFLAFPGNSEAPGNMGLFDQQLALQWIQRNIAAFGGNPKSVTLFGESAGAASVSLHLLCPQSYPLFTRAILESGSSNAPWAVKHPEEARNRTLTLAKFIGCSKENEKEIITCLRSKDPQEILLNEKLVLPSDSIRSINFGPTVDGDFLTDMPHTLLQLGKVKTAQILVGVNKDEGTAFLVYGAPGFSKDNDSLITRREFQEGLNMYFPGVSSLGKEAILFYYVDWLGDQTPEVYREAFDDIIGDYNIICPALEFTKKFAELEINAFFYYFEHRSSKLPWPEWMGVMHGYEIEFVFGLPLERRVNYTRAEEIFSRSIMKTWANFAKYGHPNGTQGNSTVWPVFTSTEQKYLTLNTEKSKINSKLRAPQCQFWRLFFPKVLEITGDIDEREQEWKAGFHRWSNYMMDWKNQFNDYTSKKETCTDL

## COc1cc2c(cc1OC)C(=O)C(CC1CCN(Cc3ccccc3)CC1)C2.Cl (configuration not stated) [DONEPEZIL HYDROCHLORIDE]
Rattus norvegicus [1]
  Activity: 18%
[2]
  Kp at 1 h: 4.4
[3]
  Vd at 1 h: 9.2 L/kg
[4]
  half-life at 1 h: 150 min
[5]
  MRT at 1 h: 3 h
[6]
  Vd at 1 h: 11.8 L/kg
[7]
  half-life at 1 h: 216 min
[8]
  MRT at 1 h: 4.6 h
Rattus norvegicus [9]
  inhibition: 92.6%
[10]
  Tmax: 3 h
[11]
  half-life: 4200 min
Homo sapiens
  Vd: 12 L/kg
[12]
  CL/F: 2.17 mL/min/kg
[13]
  bioavailability: 100%
[14]
  dose excreted: 17%
Rattus norvegicus [15]
  AUCt/dose: 15.9 kg·min/L
Rattus norvegicus [16]
  AUCt: 0.76 µM·h
Rattus norvegicus [17]
  AUC/dose: 5.8 kg·min/L
Rattus norvegicus [18]
  AUCt/dose: 16.4 kg·min/L
Rattus norvegicus [19]
  AUC/dose: 23.7 kg·min/L
Rattus norvegicus [20]
  AUCt: 0.91 µM·h
Rattus norvegicus [21]
  AUC/dose: 6.9 kg·min/L
In vivo [22]
  Kp at 1 h: 5.3
In vivo [23]
  Cmax: 180 nM
In vivo [24]
  Tmax: 60 min
In vivo [25]
  bioavailability: 36%
In vivo [26]
  Cmax at 1 h: 300 nM
In vivo [27]; blood
  clearance at 1 h: 43 mL/min/kg
In vivo [28]
  Cmax: 200 nM
In vivo [29]
  Tmax: 60 min
In vivo [30]
  bioavailability: 43%
In vivo [31]
  Cmax at 1 h: 320 nM
In vivo [32]; blood
  clearance at 1 h: 52 mL/min/kg

## Br.COc1ccc2c3c1O[C@H]1C[C@@H](O)C=C[C@@]31CCN(C)C2 [GALANTAMINE HYDROBROMIDE]
[33]
  concentration at 1 h: 420 nM
[34]
  concentration at 1 h: 730 nM
[2]
  Kp at 1 h: 1.7
[35]
  concentration at 1 h: 580 nM
[36]
  concentration at 1 h: 1140 nM
[3]
  Vd at 1 h: 5 L/kg
[4]
  half-life at 1 h: 114 min
[5]
  MRT at 1 h: 2 h
[6]
  Vd at 1 h: 2.9 L/kg
[7]
  half-life at 1 h: 72 min
[8]
  MRT at 1 h: 1.5 h
Rattus norvegicus [9]
  inhibition: 92.6%
[10]
  Tmax: 1 h
[11]
  half-life: 300 min
Homo sapiens
  Vd: 2.9 L/kg
[12]
  CL/F: 5.67 mL/min/kg
[13]
  bioavailability: 85%
[14]
  dose excreted: 32%
Rattus norvegicus [15]
  AUCt/dose: 20.4 kg·min/L
Rattus norvegicus [37]
  AUC/dose: 22.7 kg·min/L
Rattus norvegicus [16]
  AUCt: 2.89 µM·h
Rattus norvegicus [17]
  AUC/dose: 17.4 kg·min/L
Rattus norvegicus [18]
  AUCt/dose: 28.9 kg·min/L
Rattus norvegicus [19]
  AUC/dose: 29.9 kg·min/L
Rattus norvegicus [20]
  AUCt: 3.45 µM·h
Rattus norvegicus [21]
  AUC/dose: 19.3 kg·min/L
In vivo [22]
  Kp at 1 h: 2
In vivo [23]
  Cmax: 890 nM
In vivo [24]
  Tmax: 30 min
In vivo [25]
  bioavailability: 83%
In vivo [26]
  Cmax at 1 h: 910 nM
In vivo [27]; blood
  clearance at 1 h: 34 mL/min/kg
In vivo [28]
  Cmax: 1330 nM
In vivo [29]
  Tmax: 30 min
In vivo [30]
  bioavailability: 67%
In vivo [31]
  Cmax at 1 h: 590 nM
In vivo [32]; blood
  clearance at 1 h: 41 mL/min/kg

## Cl.Nc1c2c(nc3ccccc13)CCCC2 [TACRINE HYDROCHLORIDE]
[33]
  concentration at 1 h: 110 nM
[34]
  concentration at 1 h: 1240 nM
[2]
  Kp at 1 h: 11
[35]
  concentration at 1 h: 190 nM
[36]
  concentration at 1 h: 1720 nM
[3]
  Vd at 1 h: 5.1 L/kg
[4]
  half-life at 1 h: 54 min
[5]
  MRT at 1 h: 0.9 h
[6]
  Vd at 1 h: 5.2 L/kg
[7]
  half-life at 1 h: 66 min
[8]
  MRT at 1 h: 1.1 h
Rattus norvegicus [9]
  inhibition: 92.6%
[38]
  fraction unbound: 0.45
[10]
  Tmax: 1 h
[11]
  half-life: 120 min
Homo sapiens
  Vd: 5.02 L/kg
[12]
  CL/F: 40.3 mL/min/kg
[13]
  bioavailability: 17%
[39]
  Drug excretion: 57%
[40]
  Drug excretion: 23%
[41]
  inhibition: Active
[42]
  inhibition: Active
Rattus norvegicus [15]
  AUCt/dose: 10.2 kg·min/L
Rattus norvegicus [16]
  AUCt: 0.7 µM·h
Rattus norvegicus [18]
  AUCt/dose: 12.4 kg·min/L
Rattus norvegicus [20]
  AUCt: 0.89 µM·h
In vivo [22]
  Kp at 1 h: 9.5
In vivo [23]
  Cmax: 360 nM
In vivo [24]
  Tmax: 30 min
In vivo [25]
  bioavailability: 27%
In vivo [26]
  Cmax at 1 h: 740 nM
In vivo [27]; in vivo
  clearance at 1 h: 77 mL/min/kg
In vivo [28]
  Cmax: 310 nM
In vivo [29]
  Tmax: 30 min
In vivo [30]
  bioavailability: 29%
In vivo [31]
  Cmax at 1 h: 700 nM
In vivo [32]; in vivo
  clearance at 1 h: 93 mL/min/kg
